One series concerns INS1. The series is described as follows: INS-1E survival protection against cytokine death – cell-based, luminescence, retest, dose response (AID 449756).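 Note: cell death triggered by IL-1 beta plus TNF-alpha plus IFN-gamma mixture; protective hits raise ATP signal compared with cytokine alone wells.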 It is filed as functional. The note with it: Rattus norvegicus.
Series [1] is described as follows: Luminescence Cell-Based Dose Confirmation HTS to Identify Inhibitors of Platelet Dense Granule Release. [Related pubchem assays: 1663 (Primary HTS), 1678 (Summary of Project)]. Format: functional.
For series [2], the target named is Luciferin 4-monooxygenase (Photinus pyralis, UniProt P08659). The series is described as follows: inhibition of purified Photinus pyralis luciferase – biochemical, luminescence, dose response (AID 1891).
Sequence of Luciferin 4-monooxygenase (P08659 whole entry): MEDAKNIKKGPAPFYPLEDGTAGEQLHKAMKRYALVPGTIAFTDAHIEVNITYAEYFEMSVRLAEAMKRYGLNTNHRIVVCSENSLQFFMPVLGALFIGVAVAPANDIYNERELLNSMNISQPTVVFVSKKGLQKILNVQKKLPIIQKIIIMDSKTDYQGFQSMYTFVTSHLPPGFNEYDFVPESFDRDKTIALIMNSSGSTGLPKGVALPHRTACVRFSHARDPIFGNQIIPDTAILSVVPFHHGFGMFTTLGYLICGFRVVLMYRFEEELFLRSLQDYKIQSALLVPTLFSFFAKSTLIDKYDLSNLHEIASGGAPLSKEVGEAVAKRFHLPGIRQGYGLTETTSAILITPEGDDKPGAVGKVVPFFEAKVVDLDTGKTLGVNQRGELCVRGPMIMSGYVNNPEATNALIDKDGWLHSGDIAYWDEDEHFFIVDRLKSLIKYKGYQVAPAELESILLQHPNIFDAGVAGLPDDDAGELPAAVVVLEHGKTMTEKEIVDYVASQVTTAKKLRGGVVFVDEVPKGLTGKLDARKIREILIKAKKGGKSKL
The target of series [3] is T1, Corticotropin-releasing factor receptor 2/Corticotropin-releasing factor-binding protein (Homo sapiens, UniProt P24387+Q13324).
T1 sequence (Q13324 whole entry): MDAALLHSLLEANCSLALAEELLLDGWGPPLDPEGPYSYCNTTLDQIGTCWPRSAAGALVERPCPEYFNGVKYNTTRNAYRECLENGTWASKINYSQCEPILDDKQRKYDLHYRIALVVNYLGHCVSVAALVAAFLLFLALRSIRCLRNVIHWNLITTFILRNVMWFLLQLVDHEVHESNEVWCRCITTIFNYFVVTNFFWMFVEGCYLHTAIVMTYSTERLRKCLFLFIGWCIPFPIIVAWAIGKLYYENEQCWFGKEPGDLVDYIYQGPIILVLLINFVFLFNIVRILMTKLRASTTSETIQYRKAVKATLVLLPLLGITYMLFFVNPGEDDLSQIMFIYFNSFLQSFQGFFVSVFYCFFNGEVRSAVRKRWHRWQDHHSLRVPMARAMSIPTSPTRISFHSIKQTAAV
T1 sequence (P24387 whole entry): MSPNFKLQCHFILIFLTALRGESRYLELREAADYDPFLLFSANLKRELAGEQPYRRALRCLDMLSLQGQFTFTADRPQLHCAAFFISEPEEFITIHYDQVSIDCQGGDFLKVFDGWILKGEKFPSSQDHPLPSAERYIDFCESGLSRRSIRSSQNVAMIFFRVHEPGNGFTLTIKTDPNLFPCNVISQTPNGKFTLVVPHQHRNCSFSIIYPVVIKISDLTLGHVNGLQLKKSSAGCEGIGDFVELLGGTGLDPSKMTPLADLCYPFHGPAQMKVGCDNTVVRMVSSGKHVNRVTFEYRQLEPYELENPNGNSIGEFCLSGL
The series is described as follows: activators of CRF receptor 2 with binding protein – uHTS hits, confirmation (AID 602473). It is filed as functional. Conditions: read-out: EC50_Mean.

The target of series [4] is T1, Corticotropin-releasing factor receptor 2/Corticotropin-releasing factor-binding protein. Briefly: Dose Response confirmation of uHTS hits for small molecule antagonists of the CRF-binding protein and CRF-R2 receptor complex. It is filed as functional. Conditions: read-out: IC50_Mean.
For a further series, the target named is Cytochrome P450 3A4 (Homo sapiens, UniProt P08684).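 Note: CYP3A4 tested as one member of a cytochrome P450 panel screen.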
Sequence of Cytochrome P450 3A4 (P08684 whole entry): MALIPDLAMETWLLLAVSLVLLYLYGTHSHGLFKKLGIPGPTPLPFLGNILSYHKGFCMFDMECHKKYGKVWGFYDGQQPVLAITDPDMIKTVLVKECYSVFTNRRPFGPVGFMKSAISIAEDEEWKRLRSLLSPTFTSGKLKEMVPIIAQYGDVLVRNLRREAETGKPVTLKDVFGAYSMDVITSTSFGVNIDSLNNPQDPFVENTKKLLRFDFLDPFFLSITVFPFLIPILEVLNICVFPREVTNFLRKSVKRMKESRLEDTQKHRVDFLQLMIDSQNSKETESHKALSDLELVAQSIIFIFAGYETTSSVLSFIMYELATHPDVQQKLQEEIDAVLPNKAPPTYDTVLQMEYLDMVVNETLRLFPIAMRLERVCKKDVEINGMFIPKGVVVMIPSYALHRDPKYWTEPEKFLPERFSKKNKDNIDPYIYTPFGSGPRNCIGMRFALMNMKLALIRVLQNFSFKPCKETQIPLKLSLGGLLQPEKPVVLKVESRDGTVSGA
In a further series the target is T2, Cytochrome P450 1A2 (Homo sapiens, UniProt P05177).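 Note: PubChem cytochrome P450 panel assay, CYP1A2 panel member.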
T2 sequence (P05177 whole entry): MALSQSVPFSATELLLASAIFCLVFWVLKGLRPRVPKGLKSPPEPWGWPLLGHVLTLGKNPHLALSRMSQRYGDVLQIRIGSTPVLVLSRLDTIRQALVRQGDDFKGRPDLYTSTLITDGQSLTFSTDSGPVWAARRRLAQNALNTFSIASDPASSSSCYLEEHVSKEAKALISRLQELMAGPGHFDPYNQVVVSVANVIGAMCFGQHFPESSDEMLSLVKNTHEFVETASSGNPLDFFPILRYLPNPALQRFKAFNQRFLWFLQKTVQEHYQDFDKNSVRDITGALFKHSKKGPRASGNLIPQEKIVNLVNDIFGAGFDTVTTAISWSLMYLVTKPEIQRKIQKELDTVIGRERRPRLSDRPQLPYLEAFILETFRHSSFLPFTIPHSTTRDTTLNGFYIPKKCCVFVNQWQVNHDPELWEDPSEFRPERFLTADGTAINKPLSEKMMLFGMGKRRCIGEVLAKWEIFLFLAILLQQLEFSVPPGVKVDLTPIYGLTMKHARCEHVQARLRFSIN

A further series has as its target Cytochrome P450 2C9 (Homo sapiens, UniProt P11712).
Series [5] is described as follows: viability of uninfected HEp-2 cells – cell-based, HTS, cytotoxicity control for RSV inhibitor project, dose response (AID 2410). The note with it: human respiratory syncytial virus. Format: functional.
The target of the next series is Cytochrome P450 2C19 (Homo sapiens, UniProt P33261). The series is described as follows: Cytochrome panel assay with activity outcomes. Panel member name: p450-cyp2c19 Compounds with AC50 equal or less than 10 uM are considered active. Format: functional.
Sequence of Cytochrome P450 2C19 (P33261 whole entry): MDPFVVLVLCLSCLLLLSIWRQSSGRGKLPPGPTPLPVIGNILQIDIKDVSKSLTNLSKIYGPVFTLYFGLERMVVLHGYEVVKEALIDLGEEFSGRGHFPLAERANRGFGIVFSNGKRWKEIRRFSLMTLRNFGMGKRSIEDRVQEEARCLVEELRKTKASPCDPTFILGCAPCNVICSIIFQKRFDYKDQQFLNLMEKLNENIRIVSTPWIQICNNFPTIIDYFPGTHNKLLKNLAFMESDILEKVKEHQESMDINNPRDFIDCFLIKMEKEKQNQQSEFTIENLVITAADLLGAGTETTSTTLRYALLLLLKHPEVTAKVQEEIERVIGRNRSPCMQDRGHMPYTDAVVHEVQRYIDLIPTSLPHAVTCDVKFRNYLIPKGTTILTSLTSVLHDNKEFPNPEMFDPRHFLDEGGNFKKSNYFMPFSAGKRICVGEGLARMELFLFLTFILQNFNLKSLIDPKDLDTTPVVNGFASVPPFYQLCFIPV
Another series has as its target Cytochrome P450 2D6 (Homo sapiens, UniProt P10635).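 Note: CYP2D6 member of a cytochrome P450 panel assay.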

Molecules are shown by their SMILES. The source made the active and inactive calls. Some results are limits rather than exact numbers.

Sequence of Cytochrome P450 2D6 (P10635 whole entry): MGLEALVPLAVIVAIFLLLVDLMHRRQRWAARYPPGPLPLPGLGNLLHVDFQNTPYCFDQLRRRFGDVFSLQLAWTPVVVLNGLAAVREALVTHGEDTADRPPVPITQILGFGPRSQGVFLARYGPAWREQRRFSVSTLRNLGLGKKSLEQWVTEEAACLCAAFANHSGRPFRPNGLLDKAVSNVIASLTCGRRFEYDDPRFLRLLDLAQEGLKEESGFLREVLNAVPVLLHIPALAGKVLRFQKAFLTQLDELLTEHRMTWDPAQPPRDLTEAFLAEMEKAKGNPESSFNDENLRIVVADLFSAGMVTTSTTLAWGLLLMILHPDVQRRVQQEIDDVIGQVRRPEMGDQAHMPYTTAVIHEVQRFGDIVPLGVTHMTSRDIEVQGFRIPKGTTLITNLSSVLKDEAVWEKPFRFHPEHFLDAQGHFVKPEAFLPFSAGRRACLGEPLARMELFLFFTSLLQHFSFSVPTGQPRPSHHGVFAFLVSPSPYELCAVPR
Sequence of Cytochrome P450 2C9 (P11712 whole entry): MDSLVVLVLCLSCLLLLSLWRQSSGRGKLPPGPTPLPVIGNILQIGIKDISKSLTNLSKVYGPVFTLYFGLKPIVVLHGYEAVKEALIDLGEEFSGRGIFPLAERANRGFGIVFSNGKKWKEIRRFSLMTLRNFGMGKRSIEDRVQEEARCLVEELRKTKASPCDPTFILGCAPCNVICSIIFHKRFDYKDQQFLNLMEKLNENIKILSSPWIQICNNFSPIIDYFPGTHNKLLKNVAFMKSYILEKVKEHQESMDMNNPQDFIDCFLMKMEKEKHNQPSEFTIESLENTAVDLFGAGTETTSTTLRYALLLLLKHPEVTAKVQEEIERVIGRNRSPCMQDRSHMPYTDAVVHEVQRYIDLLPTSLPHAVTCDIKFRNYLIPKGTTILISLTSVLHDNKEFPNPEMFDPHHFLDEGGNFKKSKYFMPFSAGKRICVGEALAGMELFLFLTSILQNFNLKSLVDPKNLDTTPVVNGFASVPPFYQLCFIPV

The AC50 is the midpoint of the concentration-response curve, whichever way the signal moves. With `O=[N+]([O-])c1ccc(N2CCN(C(S)=Nc3ccc(F)cc3)CC2)cc1`, in the series on INS1, the AC50 is 33.9 µM (active).
Turning to `COc1ccc(-c2csc(CCn3nc(C)cc3C)n2)cc1`, the EC50 in series [1] and in [2] was > 112 µM (not active) each time.
Consider `CCOc1ccc(NC(=O)CSc2ccc3nnc(-c4cccnc4)n3n2)cc1`, for which, in [3], the EC50 is > 53 µM (inactive). In series [4], the IC50 is > 47.1 µM (inactive).
Turning to `Cc1cc(NC(=O)c2cc3ncc(Br)cn3n2)no1`, the EC50 in series [1] and in [2] was > 112 µM (not active) in each case.
For `Cc1cccc(NC(=O)Cn2c(/C=C/c3ccccc3)nc3ccccc32)c1`, the AC50 with INS1 was 30.6 µM (active).
On to `O=C(COC(=O)C1CCN(S(=O)(=O)c2ccc3c(c2)OCCO3)CC1)NC1CCS(=O)(=O)C1` (stereo not given), for which the EC50 in series [3] was > 53 µM (inactive). Further, the IC50 in series [4] is > 47.1 µM (inactive).
In the case of `CN(C)C(=O)c1ccc(-c2nccc(Nc3ccc(F)cc3)n2)cc1`, the AC50 at Cytochrome P450 3A4 was 10 µM (inconclusive).
For the compound `O=C(CSc1nncn1-c1ccccc1)Nc1ccc(N2CCOCC2)cc1`, the AC50 on Cytochrome P450 1A2 was 39.8 µM (inconclusive); at Cytochrome P450 3A4, 3.16 µM (inconclusive); at Cytochrome P450 2C9, 12.6 µM (inconclusive).
By CC50 is commonly meant the concentration at which the toxic effect on the cells reaches its halfway point. For the compound `CCC(CO)Nc1nc2ccc(Cl)cc2c2ccccc12` (stereo not given), the cytotoxic concentration (CC50) in series [5] was 14.5 µM (active).
Still for that read-out and setting: then `COc1ccccc1C(=O)Nc1ccc(S(=O)(=O)N2CCCCC2c2cccnc2)cc1` (stereo not given), with 31.9 µM (active).
As to `Cc1ccccc1C(=O)c1c[nH]c(C(=O)NCc2cccs2)c1`, the AC50 was 25.1 µM (inconclusive) at Cytochrome P450 2C19 (read-out: AC50), 22.4 µM (inconclusive) at Cytochrome P450 3A4, 14.1 µM (inconclusive) on Cytochrome P450 2D6 and 3.55 µM (inconclusive) on Cytochrome P450 2C9.
As to `COc1ccc2oc(C(=O)NCCC(C)C)c(C)c2c1`, in series [3], the EC50 was > 53 µM (inactive). The IC50 in [4] was > 47.1 µM (inactive).
As to `Nc1ccc(C(=O)c2cccs2)cc1[N+](=O)[O-]`, in series [5], the CC50 was 36.8 µM (active).
Still for that read-out and setting: the result for `CCCn1c(C(C)Nc2nc(-c3ccc(Cl)c([N+](=O)[O-])c3)cs2)nc2ccccc21` (stereo not given) reads 29.7 µM (active).
As for `COc1cc(C(=O)N2CCC(NC(=O)C(Cc3ccc(C(C)C)cc3)NC(C)=O)CC2)cc(OC)c1OC` (stereo not given), the AC50 at Cytochrome P450 2C19 (read-out: AC50) is 22.4 µM (inconclusive); at Cytochrome P450 3A4 it was 17.8 µM (inconclusive).
With `O=C(CSc1nnc(-c2cccnc2)n1Cc1ccccc1)N1CCOCC1`, the EC50 was 17.2 µM (active) in series [1] and > 112 µM (not active) in series [2].
As to `O=C(c1ccccc1)c1nc2ccccc2nc1O`, in series [3], the EC50 is > 53 µM (inactive). Also, in series [4], the IC50 was > 47.1 µM (inactive).
As for `CCN(CC(=O)NCc1ccc(Cl)cc1)C(=O)CSc1ccc(Br)cc1`, the results for the EC50 in [1] and in series [2] were > 112 µM (not active) and 43.9 µM (active), respectively.
The like results for `COc1ccccc1NC(=O)C1=C(C)Nc2nnnn2C1c1ccccc1OC` (stereo not given) were, in that order, 72.3 µM (active) and > 112 µM (not active).
As to `COc1cccc(NC(=O)C2CCCN(S(=O)(=O)c3ccc(-n4cnnn4)cc3)C2)c1` (stereo not given), the EC50 in [3] was > 53 µM (inactive). The IC50 in series [4] was > 47.1 µM (inactive).
For the compound `CCOC(=O)c1nnn(-c2nonc2N)c1CN(C)C1CCCCC1`, the EC50 in series [3] was > 53 µM (inactive). The IC50 in series [4] is > 47.1 µM (inactive).
As to `Cn1c(SCC(=O)N2CCCC2)nnc1-c1cccs1`, the EC50 in series [1] and in [2] was > 112 µM (not active) each time.
Take `CCOC(=O)CSc1nc(O)c2c(n1)-c1ccccc1CC2(C)CC` (stereo not given): in the series on INS1, the AC50 is 40.1 µM (active).
As to `CC(=O)OCCNC(=O)Cn1cnc2c1c(=O)n(C)c(=O)n2C`, the EC50 in series [1] and in series [2] was > 112 µM (not active) each time.
In the case of `C=CCOc1ccc(CN(C)CC(O)COc2cccc3ccccc23)cc1` (stereo not given), in series [5], the CC50 is 26.1 µM (active).
Turning to `Cc1cc(C)c(NC(=O)CSc2ccc3nnc(CCNC(=O)c4ccccc4)n3n2)c(C)c1`, the EC50 in series [1] and in series [2] was > 112 µM (not active) each time.
For `O=C(c1cccc(S(=O)(=O)N2CCOCC2)c1)N1CCN(c2ccc(F)cc2)CC1`, the EC50 in series [1] and in series [2] was > 112 µM (not active) each time.
For the compound `Cc1ccc(NC(=O)CCc2c(C)nc3ncnn3c2C)nc1`, the AC50 entry at Cytochrome P450 2C19 is “inconclusive”; at Cytochrome P450 3A4 it was 15.8 µM (inconclusive).
Regarding `Cc1cc(Nc2nc3ccccc3nc2O)n(-c2ccccc2)n1`, the CC50 in series [5] is 16.6 µM (active).
`COc1ccc(C(=O)Nc2ccc(C3CC3(Cl)Cl)cc2)cc1` (stereo not given): the EC50 in series [3] is > 53 µM (inactive). Moreover, the IC50 in series [4] is > 47.1 µM (inactive).
`COc1ccc(-n2c(=O)cnc3cnc(N(C)C)nc32)cc1`: the AC50 on Cytochrome P450 2C19 (read-out: AC50) and on Cytochrome P450 3A4 was 39.8 µM (inconclusive) each time.
Regarding `CCOC(=O)c1[nH]c(C)c(C(=O)N2CCN(c3cccc(Cl)c3)CC2)c1C`, in series [5], the CC50 is 20.9 µM (active).
In the case of `Cc1nc2cnc(N3CCOCC3)nc2n(Cc2cccs2)c1=O`, the AC50 on Cytochrome P450 3A4 is 7.94 µM (inconclusive); on Cytochrome P450 2D6 it was 39.8 µM (inconclusive); at Cytochrome P450 2C9, 15.8 µM (inconclusive).
Take `Cc1ccc2nc(N=C(N)NC(=O)N3c4ccccc4Sc4ccccc43)nc(C)c2c1`: in [5], the CC50 is 12.8 µM (active).
On to `Cn1c(=S)oc2ccccc21`, for which the EC50 in series [1] and in series [2] was > 112 µM (not active) throughout.
As to `COc1ccc(CNc2ncnc3ccc(-c4ccc5c(c4)OCO5)cc23)c(OC)c1`, the AC50 on Cytochrome P450 3A4 was 0.794 µM (active); at Cytochrome P450 2D6, 2.51 µM (active).
`CC(=O)Nc1ccc(OCC(O)CN2C(C)(C)CC(O)CC2(C)C)cc1` (stereo not given): the EC50 in [3] is > 53 µM (inactive). Moreover, the IC50 in series [4] is > 47.1 µM (inactive).
Take `COc1ccc(NC(=O)CN(C)C(=O)c2cccc(S(=O)(=O)N3CCN(c4ccc(F)cc4)CC3)c2)cc1`: in series [3], the EC50 was > 53 µM (inactive). Also, the IC50 in series [4] is > 47.1 µM (inactive).
The like results for `CC(C)N1CCN(Cc2nc(-c3ccccc3)cs2)CC1CCO` (stereo not given) were, in that order, > 53 µM (inactive) and > 47.1 µM (inactive).
The like results for `O=C(CSc1nc(-c2ccco2)cc(C(F)(F)F)n1)NCCCN1CCOCC1` were, in that order, > 53 µM (inactive) and > 47.1 µM (inactive).
For `Cc1ccc(C(=O)N/N=C\c2cccn2C)cn1`, the results for the AC50 on Cytochrome P450 3A4 and on Cytochrome P450 2C9 were 0.316 µM (inconclusive) and 89.1 µM (inconclusive), respectively.
As for `NC(=S)N/N=C/c1c(O)c(Br)cc2oc3c(c12)CCCC3`, in the series on INS1, the AC50 is 0.819 µM (active).
Turning to `CC/C(=N\NC(N)=O)c1ccc(OC(F)F)cc1`, in [5], the CC50 was 27.5 µM (active).
As for `CP(=O)(O)C1=CCNCC1`, the AC50 at Cytochrome P450 3A4 was 39.8 µM (inconclusive).
Take `Cc1cc(C)cc(C(=O)N(C)[C@H](Cc2ccc(-c3ccccc3)cc2)C(=O)N[C@@H](Cc2c[nH]c3ccccc23)C(=O)O)c1`: the AC50 was 39.8 µM (inconclusive) at Cytochrome P450 1A2 and 25.1 µM (inconclusive) on Cytochrome P450 3A4.
For `COc1cc(N)c(Cl)cc1C(=O)OCCCN1CCCCC1`, at Cytochrome P450 3A4, the AC50 was 25.1 µM (inconclusive).

(Values after ChEMBL document CHEMBL1201862, “PubChem BioAssay data set” (2004).)
